Results from ChEMBL document CHEMBL1201862, “PubChem BioAssay data set” (2004).
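Grown in 96-well plates, cells were treated for 48 hours with each compound at five concentrations. Insufficient inhibition: endpoint recorded as highest concentration tested. The concentration for 50% growth inhibition is given as GI50.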 Active and inactive are the calls of the source. Cut-off read from the data, not from the text of the source: active = GI50 up to about 1.1 µM and inactive = higher.

Key:
Test in all cases: NCI anticancer screen, dose series, 48 h
HCT-15 = tested on: HCT-15
A549 = tested on: A549
CAKI-1 = tested on: CAKI-1
SN12C = tested on: SN12C
Malme-3M = tested on: Malme-3M
LOX IMVI = tested on: LOX IMVI
K562 = tested on: K562
SK-OV-3 = tested on: SK-OV-3
RXF 393 = tested on: RXF 393
SK-MEL-28 = tested on: SK-MEL-28
TK-10 = tested on: TK-10
UO-31 = tested on: UO-31
SK-MEL-5 = tested on: SK-MEL-5
SF-295 = tested on: SF-295
NCI-H23 = tested on: NCI-H23
EKVX = tested on: EKVX
HL-60 = tested on: HL-60
A498 = tested on: A498

Structure (SMILES)	GI50 (HCT-15) [µM]	GI50 (A549)	GI50 (CAKI-1)	GI50 (SN12C)	GI50 (Malme-3M)	GI50 (LOX IMVI)	GI50 (K562)	GI50 (SK-OV-3)	GI50 (RXF 393)	GI50 (SK-MEL-28)	GI50 (TK-10)	GI50 (UO-31)	GI50 (SK-MEL-5)	GI50 (SF-295)	GI50 (NCI-H23)	GI50 (EKVX)	GI50 (HL-60)	GI50 (A498)
CN(/N=C/c1ccnc2ccccc12)c1ccc([N+](=O)[O-])cc1[N+](=O)[O-]	> 100	> 100 µM (inactive)	> 100 µM (inactive)	> 100 µM (inactive)	61 µM (inactive)	81.7 µM (inactive)	> 100 µM (inactive)	47.5 µM (inactive)	41.8 µM (inactive)	87.7 µM (inactive)	> 100 µM (inactive)	> 100 µM (inactive)	> 100 µM (inactive)	37.3 µM (inactive)	91.6 µM (inactive)	> 100 µM (inactive)	> 100 µM (inactive)	> 100 µM (inactive)
CCCCCCCc1cc(OC(=O)c2c(C)cc(OC)cc2O)cc(O)c1C(=O)O	–	29.9 µM (inactive)	22.5 µM (inactive)	26.6 µM (inactive)	19.8 µM (inactive)	21.3 µM (inactive)	33.9 µM (inactive)	24.5 µM (inactive)	22 µM (inactive)	20.1 µM (inactive)	28.7 µM (inactive)	16.9 µM (inactive)	21.6 µM (inactive)	19.3 µM (inactive)	20.3 µM (inactive)	25.2 µM (inactive)	26.5 µM (inactive)	19.1 µM (inactive)
C1CC2=C(C1)C1=S(S2)SC2=C1CCC2	> 100	> 100 µM (inactive)	> 100 µM (inactive)	> 100 µM (inactive)	> 100 µM (inactive)	> 100 µM (inactive)	> 100 µM (inactive)	> 100 µM (inactive)	> 100 µM (inactive)	> 100 µM (inactive)	> 100 µM (inactive)	> 100 µM (inactive)	> 100 µM (inactive)	> 100 µM (inactive)	> 100 µM (inactive)	> 100 µM (inactive)	> 100 µM (inactive)	10.7 µM (inactive)
CC(=O)/C=C/c1ccc(C)cc1	> 100	> 100 µM (inactive)	> 100 µM (inactive)	> 100 µM (inactive)	> 100 µM (inactive)	> 100 µM (inactive)	> 100 µM (inactive)	> 100 µM (inactive)	> 100 µM (inactive)	> 100 µM (inactive)	> 100 µM (inactive)	> 100 µM (inactive)	> 100 µM (inactive)	> 100 µM (inactive)	> 100 µM (inactive)	> 100 µM (inactive)	> 100 µM (inactive)	> 100 µM (inactive)
COc1ccc2c(c1)CC1c3c(cc4c(c3-2)OCO4)CCN1C (stereo unspecified)	36.9	21.4 µM (inactive)	23.9 µM (inactive)	33.3 µM (inactive)	28 µM (inactive)	–	23.3 µM (inactive)	21.3 µM (inactive)	–	28.8 µM (inactive)	21.1 µM (inactive)	14 µM (inactive)	16.9 µM (inactive)	21.6 µM (inactive)	23.8 µM (inactive)	33.4 µM (inactive)	–	14.4 µM (inactive)
O=S(=O)(O)c1ccc(-c2c3nc(c(-c4ccc(S(=O)(=O)O)cc4)c4ccc([nH]4)c(-c4ccc(S(=O)(=O)O)cc4)c4nc(c(-c5ccc(S(=O)(=O)O)cc5)c5ccc2[nH]5)C=C4)C=C3)cc1	> 100	55 µM (inactive)	> 100 µM (inactive)	> 100 µM (inactive)	> 100 µM (inactive)	> 100 µM (inactive)	> 100 µM (inactive)	> 100 µM (inactive)	19.9 µM (inactive)	16.5 µM (inactive)	> 100 µM (inactive)	19.5 µM (inactive)	> 100 µM (inactive)	42.7 µM (inactive)	58.1 µM (inactive)	> 100 µM (inactive)	–	31 µM (inactive)
COC(=O)/C(C#N)=C1\NN=NN1CCCN1CCOCC1	> 100	> 100 µM (inactive)	> 100 µM (inactive)	> 100 µM (inactive)	> 100 µM (inactive)	> 100 µM (inactive)	> 100 µM (inactive)	> 100 µM (inactive)	> 100 µM (inactive)	> 100 µM (inactive)	> 100 µM (inactive)	> 100 µM (inactive)	> 100 µM (inactive)	> 100 µM (inactive)	> 100 µM (inactive)	> 100 µM (inactive)	–	> 100 µM (inactive)
Cc1ccc(C2(c3ccc(F)cc3)OC(=O)c3ccccc32)c(O)c1 (stereo unspecified)	15.2	15.8 µM (inactive)	11.6 µM (inactive)	14.7 µM (inactive)	> 10 µM (inactive)	13.9 µM (inactive)	14.2 µM (inactive)	11.9 µM (inactive)	–	–	15.1 µM (inactive)	5.5 µM (inactive)	16.3 µM (inactive)	11.5 µM (inactive)	19.9 µM (inactive)	16 µM (inactive)	14 µM (inactive)	19.6 µM (inactive)
Nc1ccc(C(=O)NN2C(=O)C(Cl)C2c2ccccc2O)cc1 (stereo unspecified)	35.2	93.1 µM (inactive)	47.8 µM (inactive)	> 100 µM (inactive)	> 100 µM (inactive)	18.8 µM (inactive)	75 µM (inactive)	71.6 µM (inactive)	–	> 100 µM (inactive)	> 100 µM (inactive)	21.9 µM (inactive)	47.4 µM (inactive)	47.2 µM (inactive)	> 100 µM (inactive)	49.3 µM (inactive)	1.15 µM (inactive)	–
COC(=O)C1C=NNC1C(=O)OC (stereo unspecified)	> 100	> 100 µM (inactive)	> 100 µM (inactive)	> 100 µM (inactive)	> 100 µM (inactive)	> 100 µM (inactive)	> 100 µM (inactive)	> 100 µM (inactive)	> 100 µM (inactive)	–	> 100 µM (inactive)	> 100 µM (inactive)	> 100 µM (inactive)	> 100 µM (inactive)	> 100 µM (inactive)	> 100 µM (inactive)	> 100 µM (inactive)	> 100 µM (inactive)
Cn1c2c(c3ccccc31)CCN(CCCCN1CCN(c3cccc(Cl)c3)CC1)C2=O	11.6	20.5 µM (inactive)	27.2 µM (inactive)	12.8 µM (inactive)	> 10 µM (inactive)	–	4.45 µM (inactive)	16.3 µM (inactive)	7.94 µM (inactive)	6.07 µM (inactive)	11.5 µM (inactive)	6.21 µM (inactive)	10.1 µM (inactive)	16.1 µM (inactive)	12.6 µM (inactive)	21.5 µM (inactive)	3.67 µM (inactive)	13.8 µM (inactive)
O=C(/C=C/c1ccccc1)c1ccc(Cl)cc1Cl	13.1	25.8 µM (inactive)	25.9 µM (inactive)	23.1 µM (inactive)	25.1 µM (inactive)	–	10 µM (inactive)	46.9 µM (inactive)	–	–	31.8 µM (inactive)	> 100 µM (inactive)	14.1 µM (inactive)	19.9 µM (inactive)	27.5 µM (inactive)	28.4 µM (inactive)	14.8 µM (inactive)	18.3 µM (inactive)
